Source: patent US8193175B2, “Ruthenium complexes for treating cancers” (Universite de Strasbourg, priority 2004, dated 2012)

Legend:
A172 glioblastoma cells = assay: Nucleus morphology and caspase 3 activation in A172 cells; format: cell-based, human
Excerpt: FIG. 2: A—The A172 cells were cultivated on glass slides. […] The cells were then fixed in 4% paraformaldehyde, permeabilised with 0.1% NP40 and marked with Hoechst dye (blue) and the anti-p20 antibody (active fragment of caspase 3, in red). The cells were then observed under the fluorescence microscope. B—Graphic representation of the number of cells with an apoptotic, fragmented or condensed nucleus. The bars are an average of two slides from one experiment representative of 3 carried out. C—In parallel, proteic extracts were prepared from cells treated with various drugs (cisplatinum 15 μM; CDR225 μM; CDR615 μM; CDR915 μM) and following denaturation the extracts were deposited on a !0% SDS-Page gel. After migration, the proteins were transferred onto nitrocellulose (Biorad, 0.2 μm) and the p20 fragment of the caspase 3 was detected by Western blot with an anti-p20 antibody (1/1000, R&D System).
(§1) The first step towards characterising the anticancerous effects of the compounds derived from ruthenium consists of testing their activity on tumoral lines kept in culture and comparing these effects on lines which have different characteristics as regards resistance to the anticancer treatments. Two lines of human glioblastomas (A172, HS683) and two lines of neuroblastomas (N2A and SH5Y) were used in order to test the cytostatic effects of the compounds according to the invention. Cisplatinum was chosen as the cytotoxic comparison agent. In a first approach, an MTT test was used to measure the activity of a mitochondrial enzyme, and this gives an estimate of the number of cells. Then, the cytotoxic effects of the compounds according to the invention were characterised in greater detail by analysing the morphology of the nucleus and the activation of caspase 3—two markers of cell apoptosis.

A172 cells [1] = assay: MTT test on A172 cells, combination with NCS or Taxol; format: cell-based, human; settings: concentration bringing about 10% of the maximum effect; 48 hrs
Procedure: FIG. 7: The A172 cells were cultivated in plates with 96 wells in DMEM medium with 10% calf serum. At 30% confluence, the cells were treated for 48 hrs with cisplatinum, CDR6, NCS (Neocarzinostatin), Taxol or a combination of these drugs in the concentrations indicated. The quantity of cells present in the wells was evaluated by an MTT (MTT, Sigma) test, the reaction products of which are quantified with an Elisa plate reader (Metertech, USA) (490-650 nm). […] The graphs show an average of 8 points with the typical spacings over one experiment representative of 4 carried out. The thick black line indicates the IC50 for each graph.
The mechanisms induced by various anticancer drugs are different according to the mode of action of these drugs. […] NCS induces DNA double strand breaks, similar to those of gamma rays (Smith and Nicolaou 1996). Taxol disrupts the mitotic spindles (Oberlies and Kroll 2004).
A comparison was made using two doses of NCS and two doses of Taxol. The one enables one to expect the IC50, the other leads to a reduction by 10% of the cell viability after 48 hrs treatment. These two concentrations were combined with a concentration of ruthenium derivative or cisplatinum bringing about 10% of the maximum effect.

[2] = test system: 2008/CMV and 2008/ATP7B cells; assay: MTT test on 2008/CMV and 2008/ATP7B cells; format: cell-based; settings: 48 hrs
Procedure: (§2) FIG. 6: The 2008/CMV and 2008/ATP7B cells (contributed by Dr. Howell) were cultivated in plates with 96 wells in DMEM medium with 10% calf serum. At 30% confluence, the cells were treated for 48 hrs with cisplatinum or the various compounds derived from ruthenium in the concentrations indicated (1, 5, 15, 50 μM). The quantity of cells present in the wells was evaluated by an MTT (MTT, Sigma) test. The results obtained were related to the values of the control condition (100% viability). The graphs show an average of 8 points with the typical spacings over one experiment representative of 3 carried out. The thick black line indicates the IC50 for each graph.
One of these mechanisms is the overexpression of the copper export pump (ATP7B) which expels cisplatinum from the cell. It has been shown that this molecule is overexpressed in human tumours and that cell lines which overexpress this molecule are more resistant to cisplatinum and carboplatinum than control lines.
Two cell lines derived from 2008 cells (Katano, Safaei et al. 2003) were studied. One overexpresses the ATP7B pump, and the other only contains the control vector. The cytostatic activity of the cisplatinum and the CDR was tested in these two lines using the MTT test.

HCT116 cells = assay: Western blot of p53, p21 and phospho-histone H3 in HCT116 cells; format: cell-based, human; settings: 10 μM
Procedure: FIG. 5: Detection of p53, p21 and of the phosphorylation of histone H3 in the HCT116 cells treated with CDR. The HCT116 cells were treated with the various compounds (10 μM) and for the periods of time indicated (24 hrs or 6 hrs). The proteins were extracted with a lysis buffer and were separated on 10% SDS-Page gel. After being transferred onto nitrocellulose, the p53, p21 proteins and histone H3 were detected by Western blot using anti-p53 (pAb1801), anti-p21 (1/200, Oncogene) antibody and anti-phospho serine 10 of histone H3 (1/2000, Santacruz).
(§3) For the purpose of determining the molecular mechanisms used by the ruthenium derivatives and comparing them with those induced by cisplatinum, the expression of p53, p73 p21 and bax in the A172 and HCT116 lines was analysed.

A172 cells [3] = assay: Western blot of p53, p73, p21 and Bax in A172 cells; format: cell-based, human
Procedure: FIG. 3: Detection of p53 and p73 in A172 cells treated with CDR. The A172 cells were treated with the concentrations indicated (2, 5 or 10 μM) with the various compounds and for the periods of time indicated (24 hrs or 6 hrs). The proteins were extracted with a lysis buffer and were separated on 10% SDS-Page gel. After being transferred onto nitrocellulose, the p53 and p73 proteins were detected by Western blot using anti-p53 (pAb1801) and anti-p73 (1/200, Ab2, Oncogene) antibody.
FIG. 4: Detection of p21 and Bax in A172 cells treated with CDR. The A172 cells were treated with the various compounds (10 μM) for 24 hrs. The proteins were extracted with a lysis buffer and were separated on 10% SDS-Page gel. After being transferred onto nitrocellulose, the p21 and Bax proteins were detected by Western blot using anti-p21 (1/200, Oncogene) and anti-Bax (1/2000, Santacruz) antibody.
as §3

[4] = test system: A172, HS683, N2A, and SH5Y; assay: MTT test on glioblastoma and neuroblastoma lines; format: cell-based, human; settings: 48 hrs treatment; compared with cisplatinum
Procedure: as §2, with “FIG. 1:” for “FIG. 6:”, “The A172” for “The 2008/CMV and 2008/ATP7B”, “cells” for “cells (contributed by Dr. Howell)”, “cultivated on” for “cultivated in”, “Sigma) test of which the products of the reaction are quantified with an Elisa plate reader (Metertech, USA) (490-650 nm).” for “Sigma) test.”, “of 4” for “of 3”
TABLE 2: a summary of the results obtained on various cell lines and primary glial cultures. The experiments were carried out under the same conditions as those described for the A172 cells. Each IC50 is an indicative value obtained over 4 independent experiments.
as §1

CN(C)Cc1cccc[c]1[Ru+].CP(C)c1ccccc1.F[P-](F)(F)(F)(F)F.c1ccccc1 [Compound 6, [Ru (η^6-C6H6)-2-(CH2NMe2)—C6H4—(PMe2Ph)]PF6]
nuclear condensation and fragmentation (A172 glioblastoma cells; 48 hrs treatment): induce nuclear condensation and fragmentation characteristic of apoptosis | proteic levels of the active fragment of caspase 3 (Western blot) (A172 glioblastoma cells; cisplatinum 15 μM, CDR6 15 μM, CDR9 15 μM): increasing the proteic levels of the active fragment of caspase 3 | effectiveness of co-treatment with NCS or Taxol (A172 cells [1]): significantly more effective in relation to a co-treatment with cisplatinum | sensitivity of the line expressing ATP7B relative to the control line (MTT) [2]: equivalent to that of the control line | increase in expression of p21 and inhibition of phosphorylation of histone H3 (HCT116 cells): identical for CDR 6 and cisplatinum | induction of p53 (HCT116 cells; 6 hrs to 24 hrs): induction of p53 | expression of p21 and Bax (A172 cells [3]; 10 μM, 24 hours treatment): induces the expression of p21 and Bax | p53 proteic levels (A172 cells [3]; 6 hrs treatment): induce p53 | p53 proteic levels (A172 cells [3]; 24 hrs treatment): no effect | reduction of the number of tumoral cells (MTT) [4]: at a concentration similar to or lower than that of cisplatinum
